In patent US7091351B2, “Vanadium compounds for treating cancer” (Parker Hughes Institute, priority 1998, dated 2006):
Read-outs that look alike come from different tables or passages of the source.

What was measured:
Format in all cases: cell-based, human
[1] = system: HS445 Hodgkin's lymphoma cells; assay: MTT cytotoxicity assay of oxovanadium(IV) compounds, HS445; conditions: 48 hr
Procedure: (§1) The cytotoxicity of oxovanadium (W) complexes listed in Table 6 were tested against 9 different human cancer cell lines was performed using the MTT (3-[4,5-dimethylthiazol-2-yl]-2,5-diphenyl tetrazolium bromide) assay (Boehringer Mannheim Corp., Indianapolis, Ind.) as described previously (20). Briefly, exponentially growing tumor cells were seeded into a 96-well plate at a density of 4×10^4cells/well and incubated with medium containing the oxovanadium(IV) compounds concentrations ranging from 0.1 to 250 μM for 48 hours at 37° C. in a humidified 5% CO2 atmosphere. Triplicate wells were used for each treatment. To each well, 10 μl of MTT (0.5 mg/ml final concentration) was added and the plates were incubated at 37° C. for 4 hours to allow MTT to form formazan crystals by reacting with metabolically active cells . The formazan crystals were solubilized overnight at 37° C. in a solution containing 10% SDS in 0.01 M HCl. The absorbence of each well was measured in a microplate reader (Labsystems) at 540 nm and a reference wavelength of 690 nm. To translate the OD540 values into the number of live cells in each well, the OD540 values were compared to those on standard OD540—versus—cell number curves generated for each cell line. The percent survival was calculated using the formula: % survival=Live cell number[test]/Live cell number [control]×100. The IC50 values were calculated by non-linear regression analysis using an Graphpad Prism software version 2.0 (Graphpad Software, Inc., San Diego, Calif.).

BT20 breast cancer cells = assay: Cytotoxic activity of oxovanadium(IV) compounds, BT20
Procedure: as §1

NALM-6 cells = assay: MTT cytotoxicity assay of oxovanadium(IV) compounds, NALM-6; conditions: 48 hr
Procedure: as §1

[2] = system: HS-SULTAN multiple myeloma cells; assay: MTT cytotoxicity assay of oxovanadium(IV) compounds, HS-SULTAN; conditions: 48 hr
Procedure: as §1

[3] = system: 64cp5 testicular cancer cells; assay: Cytotoxic activity of oxovanadium(IV) compounds, 64cp5
Procedure: as §1

[4] = system: NTD1 testicular cancer cells; assay: Cytotoxic activity of oxovanadium(IV) compounds, NTD1
Procedure: as §1

[5] = system: Tera-2 testicular cancer cells; assay: Cytotoxic activity of oxovanadium(IV) compounds, TERA-2
Procedure: as §1

[6] = system: ARH77 multiple myeloma cells; assay: MTT cytotoxicity assay of oxovanadium(IV) compounds, ARH77; conditions: 48 hr
Procedure: as §1, with “Briefly, exponentially growing tumor cells were seeded into a 96-well plate at a density of 4×10^4cells/well and incubated with medium containing the oxovanadium(IV) compounds concentrations ranging from 0.1 to 250 μM for 48 hours at 37° C. in a humidified 5% CO2 atmosphere.” left out

[7] = system: U266BL multiple myeloma cells; assay: MTT cytotoxicity assay of oxovanadium(IV) compounds, U266BL; conditions: 48 hr
Procedure: as §1

[8] = system: 833-K testicular cancer cells; assay: Cytotoxic activity of oxovanadium(IV) compounds, 833-K
Procedure: as §1

HL-60 cells = assay: MTT cytotoxicity assay of oxovanadium(IV) compounds, HL-60; conditions: 48 hr
Procedure: as §1

U373 glioblastoma cells = assay: Cytotoxic activity of oxovanadium(IV) compounds, U373
Procedure: as §1

MOLT-3 cells = assay: MTT cytotoxicity assay of oxovanadium(IV) compounds, MOLT-3; conditions: 48 hr
Procedure: as §1

[9] = system: PC3 prostate cancer cells; assay: Cytotoxic activity of oxovanadium(IV) compounds, PC3
Procedure: as §1

[10] = read-out: Cytotoxic Activity BT20
[11] = read-out: Cytotoxic Activity 64cp5
[12] = read-out: Cytotoxic Activity NTD1
[13] = read-out: Cytotoxic Activity TERA-2
[14] = read-out: Cytotoxic Activity 833-K
[15] = read-out: Cytotoxic Activity U373
[16] = read-out: Cytotoxic Activity PC3

| Compound | IC50 [1] [µM] | IC50 (BT20 breast cancer cells; [10]) [µM] | IC50 (NALM-6 cells) [µM] | IC50 [2] [µM] | IC50 [3, 11] [µM] | IC50 [4, 12] [µM] | IC50 [5, 13] [µM] | IC50 [6] [µM] | IC50 [7] [µM] | IC50 [8, 14] [µM] | IC50 (HL-60 cells) [µM] | IC50 (U373 glioblastoma cells; [15]) [µM] | IC50 (MOLT-3 cells) [µM] | IC50 [9, 16] [µM] | other results |
| --- | --- | --- | --- | --- | --- | --- | --- | --- | --- | --- | --- | --- | --- | --- | --- |
| CC(=O)c1cc(Br)ccc1[O][V](=[O])[O]c1ccc(Br)cc1C(C)=O [Compound 40, bis(5′-bromo-2′-hydroxyacetophenone)oxovanadium(IV)] | 96.5 ± 6.4 | > 100 | 17.4 ± 0.9 | 78.4 ± 5.8 | > 100 | > 100 | 35.4 | > 100 | 98.1 ± 6.7 | > 100 | > 100 | > 100 | 41.8 ± 3.9 |  |  |
| (diaqua) (1,10-phenanthroline)oxovanadium(IV) sulfate [Compound 26] | 6.3 ± 1.8 | 6.6 | 3.4 ± 0.2 | 11.2 ± 2.2 | 8.5 | > 100 | > 100 | 15.6 ± 3.2 | 3.5 ± 0.5 | 12.8 | 3.2 ± 1.1 | 7.7 | 2.7 ± 0.2 | 11.2 |  |
| (diaqua)(2,2′ bipyridyl)oxovanadium(IV) sulfate [Compound 34] | 41.7 ± 5.4 |  | 14.9 ± 0.6 | 62.8 ± 2.3 |  |  |  | > 100 | 30.4 ± 7.8 |  | > 100 |  | 13.1 ± 1.1 |  | IC50 (BT20 breast cancer cells): 51.2 µM; IC50 [9]: 55.8 µM; IC50 [3]: > 100 µM; IC50 [4]: > 100 µM; IC50 [5]: > 100 µM; IC50 [8]: > 100 µM; IC50 (U373 glioblastoma cells): 58.4 µM |
| (diaqua)(2,2′-bipyrimidine)oxovanadium(IV) sulfate [Compound 38] | 96.5 ± 8.6 | > 100 | 12.1 ± 1.6 | > 100 | > 100 | > 100 | 74.3 | > 100 | 91.2 ± 9.9 | > 100 | > 100 | > 100 | 27.7 ± 2.5 |  |  |
| (diaqua)(4,4′-dimethyl-2,2′-bipyridyl)oxovanadium(IV) sulfate [Compound 36] | 27.8 ± 3.4 | > 100 | 8.5 ± 0.5 | 65.1 ± 6.1 | > 100 | > 100 | > 100 | > 100 | 38.4 ± 3.2 | > 100 | 38.6 ± 4.5 | > 100 | 8.2 ± 0.5 |  |  |
| (diaqua)(5-chloro-1,10-phenanthroline)oxovanadium(IV) sulfate [Compound 30] | 7.5 ± 2.5 | 18.2 | 3.6 ± 0.07 | 9.9 ± 5.4 | 10.9 | > 100 | 18.1 | 30.3 ± 5.6 | 8.5 ± 1.2 | 12.8 | 15.3 ± 4.9 | 22.4 | 3.4 ± 0.03 | 12.4 |  |
| (diaqua)(5-nitro-1,10-phenanthroline)oxovanadium(IV) sulfate [Compound 32] | 9.1 ± 2.5 | 13.7 | 4.1 ± 0.4 | 14.5 ± 2.5 | 25.4 | 20.2 | 7.2 | 5.4 ± 1.5 | 18.1 ± 5.1 | 11.5 | 4.9 ± 1.2 | 20.5 | 2.3 ± 0.3 | 12.9 |  |
| bis(1,10-phenanthroline)sulfatooxovanadium(IV) [Compound 27] | 5.8 ± 1.2 | 7.2 | 0.97 ± 0.1 | 4.4 ± 0.8 | 18.5 | > 100 | 37.6 | 3.3 ± 0.8 | 2.2 ± 0.6 | 7.5 | 4.6 ± 1.4 | 6.8 | 1.4 ± 0.04 | 10.8 |  |
| bis(2,2′-bipyridyl)sulfatooxovanadium(IV) [Compound 35] | 21.6 ± 4.3 | 70.8 | 15.5 ± 3.8 | 35.4 ± 3.3 | > 100 | > 100 | > 100 | 26.8 ± 5.4 | 32.1 ± 5.2 | 96.2 | 31.4 ± 6.9 | > 100 | 14.2 ± 3.8 | 56.2 |  |
| bis(2,2′-bipyrimidine)sulfatooxovanadium(IV) [Compound 39] | 98.4 ± 9.1 | > 100 | 12.2 ± 2.3 | > 100 | > 100 | > 100 | > 100 | > 100 | 99.1 ± 8.1 | > 100 | > 100 | > 100 | 35.1 ± 4.7 |  |  |
| bis(4,4′-dimethyl-2,2′-bipyridyl) sulfatooxovanadium(IV) [Compound 37] | 12.6 ± 3.3 | 15.7 | 3.9 ± 0.3 | 11.4 ± 2.2 | > 100 | > 100 | > 100 | 58.3 ± 6.8 | 13.3 ± 5.1 | 34.9 | 28.4 ± 3.8 | 25.6 | 4.8 ± 0.3 |  |  |
| bis(5-chloro-1,10-phenanthroline)sulfatooxovanadium(IV) [Compound 31] | 5.2 ± 1.1 | 5.4 | 1.6 ± 0.03 | 5.8 ± 0.6 | > 100 | 50.1 | 24.2 |  | 3.7 ± 1.1 | 4.6 | 5.3 ± 1.8 | 6.3 | 2.1 ± 0.2 | 4.6 |  |
| bis(5-nitro-1,10-phenanthroline)sulfatooxovanadium(IV) [Compound 33] | 2.3 ± 0.6 | 5.6 | 0.7 ± 0.01 | 13.8 ± 3.6 | 5.9 | 9.1 | 2.6 | 5.7 ± 1.3 | 7.2 ± 1.1 | 1.1 | 2.6 ± 0.4 | 7.2 | 1.4 ± 0.06 | 6.1 |  |
